Reference: US12391751B2, “Antibody against advanced glycation end products and use thereof” (Bloom Technology Corporation, priority 2018, dated 2025)

How the values were obtained:
PB-1 antibody = test: Competitive ELISA of GAL691 and known AGEs against PB-1 (Example 31); assay type: binding, mouse; details: immobilized A-peak-BSA; competitor 0.04 to 2.5 mM; PB-1 0.1 μg/mL
Procedure: Competitive ELISA was conducted using the reagents described in Example 13. A solution of A-peak-BSA prepared into 1 μg/mL in a coating solution was added at 100 μL/well to a 96-well microtiter plate (Costar) and incubated overnight at 4° C.
(§1) Each well after the immobilization treatment was washed three times with a washing solution (300 μL), and a blocking solution (200 μL) was added thereto and left at room temperature for 1 hour.
GAL691 (prepared in Example 16), GLAP (prepared in Example 12), Lys-hydroxy-triosidine (prepared in Example 17), GA-pyridine (prepared in Example 28), GOLD (prepared in Example 29), and Z-Lys were each dissolved in a phosphate buffer solution (0.2 M, pH 7.4) to prepare a 100 mM solution. Then, a 10 mM solution was prepared by dilution 10-fold with a diluting solution containing BSA (1 mg/mL, FUJIFILM Wako Pure Chemical Corp.). Sample solutions of 4-fold dilution series of 0.04, 0.16, 0.63, and 2.5 mM were further prepared with a diluting solution containing a 10% (v/v) phosphate buffer solution and 1 mg/mL BSA. Ten-fold dilutions of a phosphate buffer solution with a diluting solution containing 1 mg/mL BSA were prepared as blank solutions containing no sample in the same way as above. A 0.1 μg/mL solution of the PB-1 antibody was prepared with a diluting solution containing 1 mg/mL BSA.
Each well treated with the blocking solution was washed three times with a washing solution (300 μL), and the sample solutions of 4-fold dilution series (50 μL each) and the PB-1 antibody dilution solution (50 μL) were added thereto, stirred with a plate mixer for 2 minutes, and then incubated at room temperature for 1 hour.
After the competitive reaction, each well was washed three times with a washing solution (300 μL), and peroxidase-labeled anti-mouse IgG (H+L) polyclonal antibody, F(ab′)2 fragment (Kirkegaard & Perry Laboratories, Inc.) diluted into 0.05 μg/mL with a diluting solution containing 1 mg/mL BSA was added at 100 μL/well and left standing at room temperature for 1 hour.
After washing three times with a washing solution (300 μL), a substrate solution (ELISA POD substrate TMB kit (Popular), Nacalai Tesque, Inc.) was added at 100 μL/well and incubated at room temperature for 10 minutes under light shielding. Then, color development was terminated by the addition of 2 N sulfuric acid (50 μL).
Absorbance was measured at a dominant wavelength of 450 nm and a sub-wavelength of 650 nm with a microplate reader (Cytation 5, BioTek Instrument Inc.), and the absorbance at the sub-wavelength was subtracted from the absorbance at the dominant wavelength. Change in the absorbance of GAL691, GLAP, Lys-hydroxy-triosidine, GA-pyridine, GOLD, and Z-Lys was indicated as relative values to the absorbance of the blank solution.

[1] = tested on: POD-labeled novel monoclonal antibody (SJ-5); test: Competitive ELISA of GAL13, GLAP, Z-Lys-OH against SJ-5 (Example 13); assay type: binding, mouse; details: immobilized Glycer-AGEs-BSA; competitor 0.0063 to 2 mg/mL
Procedure: A solution of BSA containing AGEs derived from glyceraldehyde (stock solution: 10 mg/mL PBS solution) prepared into 1 μg/mL in a coating solution was added at 100 μL/well to a 96-well microtiter plate (COSTAR) and incubated overnight at 4° C.
as §1
GAL13 (prepared in Example 2), GLAP (prepared in Example 12), and Z-Lys-OH (Tokyo Chemical Industry Co., Ltd.) were each dissolved in a phosphate buffer solution (0.2 M, pH 7.4) to prepare a 20 mg/mL solution. Sample solutions of 2-fold dilution series from 0.0063 to 2 mg/mL (6 points) were further prepared by dilution with a diluting solution. A POD-labeled novel monoclonal antibody (SJ-5) solution was diluted 16,000-fold with a diluting solution containing BSA (1 mg/mL, FUJIFILM Wako Pure Chemical Corp.) to prepare a POD-labeled SJ-5 antibody dilution solution. […]
Absorbance was measured at a dominant wavelength of 450 nm and a sub-wavelength of 650 nm with a microplate reader (Cytation 5, BioTek Instrument Inc.), and the absorbance at the sub-wavelength was subtracted from the absorbance at the dominant wavelength.

CD31 = test: Endothelial-to-mesenchymal transition inhibition test, real-time PCR (Example 15); assay type: cell-based, human; details: HUVEC; β-actin internal standard; 8 hours
Procedure: (§2) 10 μL of Glycer-AGEs-BSA (10 mg/mL) prepared in Example 1, PBS, and 90 μL of SJ-5 (10 mg/mL) or a control antibody (10 mg/mL) were added to a 1.5 mL tube (Watson). Alternatively, 90 μL of a PBS solution of control BSA (10 mg/mL) was added. These solutions were left standing at room temperature for 10 minutes. Then, a supernatant was recovered by centrifugation at 14000 rpm for 15 minutes using a centrifuge (Thermo Fisher Scientific Inc.).
(§3) HUVEC was cultured in a 10 cm dish using 10 mL of a medium for HUVEC.
(§4) The cultured HUVEC was washed with 10 mL of PBS. Then, 1 mL of trypsin-EDTA was added thereto and left standing at room temperature for 3 minutes. HUVEC thus left standing was confirmed to be detached from the dish, and trypsin-EDTA was neutralized by the addition of 10 mL of a medium for HUVEC. After the neutralization, the whole amount was transferred to a 50 mL tube and centrifuged at 1500 rpm for 3 minutes using a centrifuge.
(§5) After the centrifugation, the supernatant was discarded, and precipitated cells were resuspended by the addition of 1 mL of a medium for HUVEC. A 10 μL aliquot from the resuspension was mixed with 10 μL of Trypan Blue, and 10 μL thereof was added to a counting chamber. Then, the number of live cells was counted in Auto Cell Counter EVE. The cell suspension was diluted into 2.5×10^5 cells/mL with a medium for HUVEC and inoculated at 400 μL/well to the Matrigel prepared in (1). After the inoculation, each reaction solution prepared in (2) was added at 100 μL/well, followed by culture for 8 hours in a CO2 incubator.
(§6) Each well was washed three times with 1 mL of PBS, and Cell Recovery Solution (Corning Inc.) was added at 500 μL/well.
(§7) The cells and the Matrigel matrix were scraped off using Blue Chip (Watson), recovered into a 1.5 mL tube, and transferred to the 1.5 mL tube after rinsing of each well again with 500 μL of Cell Recovery Solution. The 1.5 mL tube was mixed by inversion five times and then left standing on ice for 1 hour to confirm that the Matrigel matrix was completely degraded. After the Matrigel matrix degradation, a supernatant was discarded by centrifugation at 800 rpm at 4° C. Precipitated cells were gently suspended in 1 mL of ice-cooled PBS and centrifuged at 800 rpm at 4° C. to discard a supernatant. Precipitated cells were gently suspended again in 1 mL of ice-cooled PBS and centrifuged at 800 rpm at 4° C.
(§8) 125 μL of CellAmp Washing Buffer attached to the kit was added to the cells precipitated by centrifugation, and mixed. […]
(§9) After the addition, real-time PCR was performed with QuantStudio™ 12K Flex real-time PCR system (Thermo Fisher Scientific Inc.) to quantify gene expression levels. […]

α-SMA = test: as above; assay type: cell-based, human; details: HUVEC; β-actin internal standard; 8 hours
Procedure: as §2, §3, §4, §5, §6, §7, §8, §9

HUVEC = test: Neutralization test of vascular endothelial cell lumen formation inhibition using PB-1 (Example 35); assay type: cell-based, human; details: Matrigel matrix; 8-hour culture
Procedure: Matrigel matrix was prepared by the same operation as in Example 14.
10 μL of Glycer-AGEs-BSA (10 mg/mL) prepared in Example 1, 10 μL of phosphate-buffered saline (PBS, FUJIFILM Wako Pure Chemical Corp.), and 90 μL of the PB-1 antibody (10 mg/mL) or a control antibody (10 mg/mL) were added to a 1.5 mL tube (Watson) and left standing at room temperature for 10 minutes. Then, a supernatant was recovered by centrifugation at 14000 rpm for 15 minutes using a centrifuge (Thermo Fisher Scientific Inc.).
(3) A lumen formation inhibition test was conducted by the same operation as in Example 14. As shown in the drawing, HUVEC was confirmed to form a lumen in the Matrigel matrix in the control BSA addition group. […] Furthermore, this inhibition of lumen formation was neutralized by the reaction solution of PB-1.

[2] = tested on: HUVEC (human umbilical vein endothelial cells); test: Neutralization test of vascular endothelial cell lumen formation inhibition (Example 14); assay type: cell-based; details: Matrigel matrix; 8 hours culture
Procedure: Matrigel matrix (Corning Inc.) was placed in a refrigerator and thawed overnight. The thawed Matrigel matrix was added at 300 μL/well to a 12-well plate (Corning Inc.) and hardened by still standing at 37° C. for 1 hour in a CO2 incubator (ESPEC Corp.).
10 μL of Glycer-AGEs-BSA (10 mg/mL) prepared in Example 1 or 10 μL of control BSA (10 mg/mL), phosphate-buffered saline (PBS, FUJIFILM Wako Pure Chemical Corp.), and 90 μL of SJ-5 (10 mg/mL) or a control antibody (10 mg/mL) were added to a 1.5 mL tube (Watson) and left standing at room temperature for 10 minutes. Then, a supernatant was recovered by centrifugation at 14000 rpm for 15 minutes using a centrifuge (Thermo Fisher Scientific Inc.).
HUVEC (human umbilical vein endothelial cells, National Institutes of Biomedical Innovation, Health and Nutrition, JCRB cell bank) was cultured in a 10 cm dish (Corning Inc.) using 10 mL of a medium for HUVEC (KAC Co., Ltd.).
The cultured HUVEC was washed with 10 mL of PBS. Then, 1 mL of trypsin-EDTA (FUJIFILM Wako Pure Chemical Corp.) was added thereto and left standing at room temperature for 3 minutes. […]
After the centrifugation, the supernatant was discarded, and precipitated cells were resuspended by the addition of 1 mL of a medium for HUVEC. […] Then, the number of live cells was counted in Auto Cell Counter EVE (NanoEnTek Inc.). […]

CC(=O)NC(CCCCn1cc[n+](CCCCC(NC(C)=O)C(=O)O)c1)C(=O)O (stereo not shown) [GOLD]
change in absorbance relative to blank (competition for PB-1 binding) (PB-1 antibody): no reduction in absorbance was observed

NCCCC[C@H](NC(=O)OCc1ccccc1)C(=O)O [Z-Lys-OH, N^α-Carbobenzoxy-L-lysine]
change in absorbance (competition for SJ-5 binding) [1]: reduction in absorbance was observed for neither
change in absorbance relative to blank (competition for PB-1 binding) (PB-1 antibody): no reduction in absorbance was observed

CC(=O)N[C@@H](CCCC[n+]1cc(O)cc(CO)c1)C(=O)O [GLAP]
change in absorbance (competition for SJ-5 binding) [1]: reduction in absorbance was observed for neither
change in absorbance relative to blank (competition for PB-1 binding) (PB-1 antibody): no reduction in absorbance was observed

Glycer-AGEs-BSA: bovine serum albumin containing AGEs derived from glyceraldehyde [reference compound]
expression level of CD31 (CD31): decreased
expression level of α-SMA (α-SMA): increased
effect on lumen formation of HUVEC (HUVEC): inhibited lumen formation
effect on lumen formation of HUVEC [2]: inhibited lumen formation

CC(=O)NC(CCCC[n+]1ccc(CO)c(O)c1)C(=O)O (stereo not shown) [GA-pyridine]
change in absorbance relative to blank (competition for PB-1 binding) (PB-1 antibody): no reduction in absorbance was observed
